Patent publication US4526892A, “Dimethylaminoalkyl-3-(ergoline-8'βcarbonyl)-ureas” (Farmitalia Carlo Erba, S.p.A., priority 1982, dated 1985)
Like-named read-outs stand apart in the source and are kept apart here.

Key:
[1] = tested on: spontaneously hypertensive male rats, strain SHR; assay: Anti-hypertensive activity: change in blood pressure (BP) in SHR rats; assay type: in vivo, rat
Experimental: (§1) Four spontaneously hypertensive male rats, strain SHR, weighing 250-300 g for each group were used. The animals were treated once a day for four consecutive days. Drugs were administered by gastric gavage, suspended in 5% gum arabic (0.2 ml/100 g body weight) and blood pressure (BP) and heart rate (HR) were measured by indirected tail/cuff method (BP Recorder W+W). Blood pressure and heart rate were measured on the first and fourth days of treatment 1 hour before and 1 and 5 hours after drug administration. Hydralazine and α-methyl-Dopa were used as reference drugs.

[2] = tested on: spontaneously hypertensive male rats, strain SHR; assay: Change in heart rate (HR) in SHR rats; assay type: in vivo, rat
Experimental: as §1

prolactin secretion = assay: Anti-prolactin activity: egg-nidation inhibition in rats; assay type: in vivo, rat (Sprague Dawley); conditions: Rattus norvegicus, po, 120 h, read-out: Nidation inhibition in rats ED50
Excerpt: The prolactin secretion inhibitory action of the compounds has been indirectly evaluated by determining the egg-nidation inhibitory action in rats. For the ergoline derivatives this activity is considered to be correlated with the anti-prolactin activity (E. FLUCKIGER and E. DEL POZO,Handb. exp. Pharmac. 49, 615, 1978), since prolactin is the only hypophysial hormone involved in the maintenance of the first part of pregnancy in rats (W. K. MORISHIGE and I. ROTHCHILD, Endocrinology 95, 260, 1974).
Pregnant Sprague Dawley rats weighing 200-250 g were used. The compounds to be tested, dissolved in diluted mineral acids, were administered orally to groups from six to eight rats on day 5 of pregnancy. The animals were sacrificed on day 14 and the uteri were examined. The absence of implantation sites was taken as the criterion of anti-prolactin activity. Several doses were tested for the ED50 evaluation. As reference standard Bromocriptine was used.

Emetic activity in dogs = conditions: dog, in vivo, po, observed for 6 hours; read-out: Emetic activity in dogs ED50
Excerpt: The emetic activity of the compounds was investigated by oral administration to male beagle dogs weighing 15-20 kg. […] Four to six animals per dose were employed for the ED50 evaluation. […] The emetic activity of the compounds is similar or lower than that of Bromocriptine. The ratio between activity and tolerance of the new ergoline derivatives accordingly is very high.

[3] = 0.5 mg/kg os, 1st day, 1 hour after dosing
[4] = 0.5 mg/kg os, 1st day, 5 hours after dosing
[5] = 0.5 mg/kg os, 4th day, 1 hour after dosing
[6] = 0.5 mg/kg os, 4th day, 5 hours after dosing
[7] = 1 mg/kg os, 1st day, 1 hour after dosing
[8] = 1 mg/kg os, 1st day, 5 hours after dosing
[9] = 1 mg/kg os, 4th day, 1 hour after dosing
[10] = 1 mg/kg os, 4th day, 5 hours after dosing
[11] = os, all tested doses of the compound
[12] = 12.5 mg/kg os, 1st day, 1 hour after dosing
[13] = 12.5 mg/kg os, 1st day, 5 hours after dosing
[14] = 12.5 mg/kg os, 4th day, 1 hour after dosing
[15] = 12.5 mg/kg os, 4th day, 5 hours after dosing
[16] = 5 mg/kg os, 1st day, 1 hour after dosing
[17] = 5 mg/kg os, 1st day, 5 hours after dosing
[18] = 5 mg/kg os, 4th day, 1 hour after dosing
[19] = 5 mg/kg os, 4th day, 5 hours after dosing
[20] = 0.1 mg/kg os, 1st day, 1 hour after dosing
[21] = 0.1 mg/kg os, 1st day, 5 hours after dosing
[22] = 0.1 mg/kg os, 4th day, 1 hour after dosing
[23] = 0.1 mg/kg os, 4th day, 5 hours after dosing
[24] = 10 mg/kg os, 1st day, 5 hours after dosing
[25] = 10 mg/kg os, 4th day, 1 hour after dosing
[26] = 10 mg/kg os, 4th day, 5 hours after dosing
[27] = 10 mg/kg os, 1st day, 1 hour after dosing
[28] = 2 mg/kg os, 1st day, 1 hour after dosing
[29] = 2 mg/kg os, 1st day, 5 hours after dosing
[30] = 2 mg/kg os, 4th day, 1 hour after dosing
[31] = 2 mg/kg os, 4th day, 5 hours after dosing

CC(C)NC(=O)N(C(=O)[C@@H]1C[C@@H]2c3cccc4[nH]cc(c34)C[C@H]2N(C)C1)C(C)C [Example 1, 1,3-diisopropyl-3-(6'-methylergoline-8'β-carbonyl)urea]
Change in BP [1, 3]: -27 mmHg | Change in BP [1, 4]: -20 mmHg | Change in BP [1, 5]: -20 mmHg | Change in BP [1, 6]: 0 mmHg | Change in BP [1, 7]: -40 mmHg | Change in BP [1, 8]: -37 mmHg | Change in BP [1, 9]: -40 mmHg | Change in BP [1, 10]: -32 mmHg | Hypotensive activity vs Hydralazine ([1]; doses not stated): greater and longer lasting hypotensive activity than Hydralazine | Effect on BP (in words) [1, 11]: marked decrease of BP in a dose dependent manner | Change in HR [2, 3]: -20 beats/minute | Change in HR [2, 4]: -12 beats/minute | Change in HR [2, 5]: -20 beats/minute | Change in HR [2, 6]: -7 beats/minute | Change in HR [2, 7]: -30 beats/minute | Change in HR [2, 8]: -35 beats/minute | Change in HR [2, 9]: -35 beats/minute | Change in HR [2, 10]: -30 beats/minute

CN1C[C@H](C(=O)N(C(=O)NC(C)(C)C)C(C)(C)C)C[C@@H]2c3cccc4c3c(cn4C)C[C@H]21 [Example 18, 1,3-di-tert-butyl-3-(1',6'-dimethylergoline-8'β-carbonyl)urea]
Change in BP [1, 7]: -15 mmHg | Change in BP [1, 8]: -10 mmHg | Change in BP [1, 9]: -8 mmHg | Change in BP [1, 10]: -14 mmHg | Effect on BP (in words) ([1]; 12.5 mg/kg b.w. (highest dose), 4th day): very remarkable on the 4th day of treatment and still lasting 5 hours after administration | Change in BP [1, 12]: -19 mmHg | Change in BP [1, 13]: -19 mmHg | Change in BP [1, 14]: -38 mmHg | Change in BP [1, 15]: -47 mmHg | Hypotensive activity vs Hydralazine ([1]; compound 12.5 mg/kg vs Hydralazine 5 mg/kg, 4th day): much more remarkable | Hypotensive activity vs Hydralazine ([1]; compound 12.5 mg/kg vs Hydralazine 5 mg/kg, first day): comparable to that of Hydralazine | Effect on BP (in words) [1, 11]: reduced BP with both the tested doses (12.5 and 1 mg/kg b.w.); this effect was dose dependent | Change in HR [2, 7]: -22 beats/minute | Change in HR [2, 8]: -20 beats/minute | Change in HR [2, 9]: +7 beats/minute | Change in HR [2, 10]: -8 beats/minute | Change in HR [2, 12]: -10 beats/minute | Change in HR [2, 13]: -15 beats/minute | Change in HR [2, 14]: +2 beats/minute | Change in HR [2, 15]: +5 beats/minute

C=CCN1C[C@H](C(=O)N(C)C(=O)NC)C[C@@H]2c3cccc4[nH]cc(c34)C[C@H]21 [Example 24, 1,3-Dimethyl-3-(6'-allylergoline-8'β-carbonyl)-urea]
ED50 (prolactin secretion; p.o., day 5 of pregnancy): 0.5 mg/kg

CC(C)C[C@H]1C(=O)N2CCC[C@H]2[C@]2(O)O[C@](NC(=O)[C@@H]3C=C4c5cccc6[nH]c(Br)c(c56)C[C@H]4N(C)C3)(C(C)C)C(=O)N12 [2-bromo-α-ergocryptine, reference compound]
ED50 (prolactin secretion): 5.7 mg/kg | TD50 at 6 h (Emetic activity in dogs): 0.01 to 0.02 mg/kg

C=CCN1C[C@H](C(=O)N(CC)C(=O)NCCCN(C)C)C[C@@H]2c3cccc4[nH]cc(c34)C[C@H]21 [Example 20, 1-(3'-dimethylaminopropyl)-3-ethyl-3-(6'-allylergoline-8'β-carbonyl)-urea]
ED50 (prolactin secretion; p.o., day 5 of pregnancy): 0.27 mg/kg

NNc1nncc2ccccc12 [Hydralazine, reference compound]
Change in BP [1, 7]: -5 mmHg | Change in BP [1, 8]: -15 mmHg | Change in BP [1, 9]: -5 mmHg | Change in BP [1, 10]: 0 mmHg | Change in BP [1, 16]: -40 mmHg | Change in BP [1, 17]: -20 mmHg | Change in BP [1, 18]: -20 mmHg | Change in BP [1, 19]: -7 mmHg | Change in HR [2, 7]: +30 beats/minute | Change in HR [2, 8]: +35 beats/minute | Change in HR [2, 9]: +25 beats/minute | Change in HR [2, 10]: +15 beats/minute | Change in HR [2, 16]: +40 beats/minute | Change in HR [2, 17]: +45 beats/minute | Change in HR [2, 18]: +18 beats/minute | Change in HR [2, 19]: +15 beats/minute | Effect on HR (in words) ([2]; SHR rats, os): increase of HR

C=CCN1C[C@H](C(=O)N(CCCN(C)C)C(=O)NCC)C[C@@H]2c3cccc4[nH]cc(c34)C[C@H]21 [Example 19, 1-ethyl-3-(3'-dimethylaminopropyl)-3-(6'-allylergoline-8'βcarbonyl)-urea]
ED50 (prolactin secretion; p.o., day 5 of pregnancy): 0.03 mg/kg | TD50 at 6 h (Emetic activity in dogs): 0.02 mg/kg

CCCN1C[C@H](C(=O)N(C(=O)NC(C)C)C(C)C)C[C@@H]2c3cccc4[nH]cc(c34)C[C@H]21 [Example 5, 1,3-diisopropyl-3-(6'-n-propylergoline-8'β-carbonyl)-urea]
ED50 (prolactin secretion; p.o., day 5 of pregnancy): 0.02 mg/kg | TD50 at 6 h (Emetic activity in dogs): 0.01 mg/kg

CCCN1C[C@H](C(=O)N(CCCN(C)C)C(=O)NCC)C[C@@H]2c3cccc4[nH]cc(c34)C[C@H]21 [Example 21, 1-ethyl-3-(3'-dimethylaminopropyl)-3-(6'-n-propylergoline-8'β-carbonyl)-urea]
ED50 (prolactin secretion; p.o., day 5 of pregnancy): 0.02 mg/kg | TD50 at 6 h (Emetic activity in dogs): 0.02 to 0.04 mg/kg

CCNC(=O)N(CCCN(C)C)C(=O)[C@@H]1C[C@@H]2c3cccc4[nH]cc(c34)C[C@H]2N(C)C1 [Example 13, 1-ethyl-3-(3'-dimethylaminopropyl)-3(6'-methylergoline-8'β-carbonyl)-urea]
ED50 (prolactin secretion): 0.3 mg/kg | TD50 at 6 h (Emetic activity in dogs): 0.01 mg/kg

CO[C@]12C[C@@H](C(=O)N(C(=O)NC(C)(C)C)C(C)(C)C)CN(C)[C@@H]1Cc1cn(C)c3cccc2c13 [Example 17]
Effect on BP (in words) ([1]; 0.1 mg/kg b.w.): No effect | Change in BP [1, 20]: -5 mmHg | Change in BP [1, 21]: -7 mmHg | Change in BP [1, 22]: -4 mmHg | Change in BP [1, 23]: -10 mmHg | Change in BP [1, 7]: -20 mmHg | Change in BP [1, 8]: -19 mmHg | Change in BP [1, 9]: -43 mmHg | Change in BP [1, 10]: -66 mmHg | Effect on BP (in words) ([1]; 10 mg/kg b.w., 1st and 4th day): dose related as well as very marked | Change in BP [1, 24]: -60 mmHg | Change in BP [1, 25]: -59 mmHg | Change in BP [1, 26]: -93 mmHg | Hypotensive activity vs Hydralazine ([1]; compound 1 mg/kg vs Hydralazine 5 mg/kg, 4th day): much more remarkable | Hypotensive activity vs Hydralazine ([1]; compound 1 mg/kg vs Hydralazine 5 mg/kg, first day): comparable to that of Hydralazine | Hypotensive effect vs Hydralazine ([1]; compound 10 mg/kg b.w., 1st and 4th days): hypotensive effect larger than Hydralazine | Change in HR [2, 20]: -2 beats/minute | Change in HR [2, 21]: +3 beats/minute | Change in HR [2, 22]: -4 beats/minute | Change in HR [2, 23]: -8 beats/minute | Change in HR [2, 7]: -20 beats/minute | Change in HR [2, 8]: -23 beats/minute | Change in HR [2, 9]: -27 beats/minute | Change in HR [2, 10]: -22 beats/minute | Change in HR [2, 27]: +15 beats/minute | Change in HR [2, 24]: -13 beats/minute | Change in HR [2, 25]: -2 beats/minute | Change in HR [2, 26]: +6 beats/minute

CO[C@]12C[C@@H](C(=O)N(C(=O)NC(C)(C)C)C(C)(C)C)CN(C)[C@@H]1Cc1c[nH]c3cccc2c13 [Example 12, 1,3-di-t-butyl-3-(10'αmethoxy-6'-methylergoline-8'β-carbonyl)-urea]
Change in BP [1, 28]: -17 mmHg | Change in BP [1, 29]: -17 mmHg | Change in BP [1, 30]: -10 mmHg | Change in BP [1, 31]: -24 mmHg | Tolerance on the 4th day ([1]; 10 mg/kg): tolerance does not occur | Change in BP [1, 27]: -26 mmHg | Change in BP [1, 24]: -37 mmHg | Change in BP [1, 25]: -71 mmHg | Change in BP [1, 26]: -28 mmHg | Hypotensive activity vs Hydralazine ([1]; compound 10 mg/kg vs Hydralazine 5 mg/kg, 1st day): comparable activity to that of Hydralazine | Hypotensive activity vs Hydralazine ([1]; compound 10 mg/kg vs Hydralazine 5 mg/kg, 4th day): greater activity on the 4th day | Effect on BP (in words) [1, 11]: reduced BP in a dose dependent manner | Change in HR [2, 28]: -10 beats/minute | Change in HR [2, 29]: -10 beats/minute | Change in HR [2, 30]: -20 beats/minute | Change in HR [2, 31]: -12 beats/minute | Change in HR [2, 27]: 0 beats/minute | Change in HR [2, 24]: -30 beats/minute | Change in HR [2, 25]: +17 beats/minute | Change in HR [2, 26]: -10 beats/minute
